Measured values published in the supplement of paper PMC10307832.

Assays:
Test in all cases: relative viability (nuclei count vs DMSO), 5 days (fraction); higher = more cells survive
BX 795 + Tozasertib = compound: O=C(NCCCNc1nc(Nc2cccc(NC(=O)N3CCCC3)c2)ncc1I)c1cccs1 [BX 795] + Cc1cc(Nc2cc(N3CCN(C)CC3)nc(Sc3ccc(NC(=O)C4CC4)cc3)n2)n[nH]1 [Tozasertib] (partner 0.1 µM)
Procedure, shortened: (§1)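 Relative viability is defined as nuclei in treated wells over nuclei in vehicle wells. Duplicate plates were run and medians reported. Lung cancer cell lines in 1536-well plates were dosed by pin tool one day after seeding, with one drug or with a fixed anchor-drug dose plus five library-drug doses (not always all listed) in √10 steps, and nuclei were counted after 5 days.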

BX 795 + Dasatinib = compound: O=C(NCCCNc1nc(Nc2cccc(NC(=O)N3CCCC3)c2)ncc1I)c1cccs1 [BX 795] + Cc1nc(Nc2ncc(C(=O)Nc3c(C)cccc3Cl)s2)cc(N2CCN(CCO)CC2)n1 [Dasatinib] (partner 0.075 µM)
Procedure, shortened: as §1

BX 795 + Linsitinib = compound: O=C(NCCCNc1nc(Nc2cccc(NC(=O)N3CCCC3)c2)ncc1I)c1cccs1 [BX 795] + C[C@]1(O)C[C@@H](c2nc(-c3ccc4ccc(-c5ccccc5)nc4c3)c3c(N)nccn32)C1 [Linsitinib] (partner 1 µM)
Procedure, shortened: as §1

BX 795 + Crizotinib = compound: O=C(NCCCNc1nc(Nc2cccc(NC(=O)N3CCCC3)c2)ncc1I)c1cccs1 [BX 795] + C[C@@H](Oc1cc(-c2cnn(C3CCNCC3)c2)cnc1N)c1c(Cl)ccc(F)c1Cl [Crizotinib] (partner 1 µM)
Procedure, shortened: as §1

BX 795 + OSI-027 = compound: O=C(NCCCNc1nc(Nc2cccc(NC(=O)N3CCCC3)c2)ncc1I)c1cccs1 [BX 795] + COc1cccc2cc(-c3nc([C@H]4CC[C@H](C(=O)O)CC4)n4ncnc(N)c34)[nH]c12 [OSI-027] (partner 0.5 µM)
Procedure, shortened: as §1

| Cell Line | relative viability (BX 795 + Tozasertib; first compound 0.04 µM) | relative viability (BX 795 + Tozasertib; first compound 0.1265 µM) | relative viability (BX 795 + Tozasertib; first compound 0.4 µM) | relative viability (BX 795 + Tozasertib; first compound 1.265 µM) | relative viability (BX 795 + Dasatinib; first compound 0.04 µM) | relative viability (BX 795 + Dasatinib; first compound 0.1265 µM) | relative viability (BX 795 + Dasatinib; first compound 0.4 µM) | relative viability (BX 795 + Dasatinib; first compound 1.265 µM) | relative viability (BX 795 + Linsitinib; first compound 0.04 µM) | relative viability (BX 795 + Linsitinib; first compound 0.1265 µM) | relative viability (BX 795 + Linsitinib; first compound 0.4 µM) | relative viability (BX 795 + Linsitinib; first compound 1.265 µM) | relative viability (BX 795 + Crizotinib; first compound 0.04 µM) | relative viability (BX 795 + Crizotinib; first compound 0.1265 µM) | relative viability (BX 795 + Crizotinib; first compound 0.4 µM) | relative viability (BX 795 + Crizotinib; first compound 1.265 µM) | relative viability (BX 795 + OSI-027; first compound 0.04 µM) | relative viability (BX 795 + OSI-027; first compound 0.1265 µM) | relative viability (BX 795 + OSI-027; first compound 0.4 µM) | relative viability (BX 795 + OSI-027; first compound 1.265 µM) |
| --- | --- | --- | --- | --- | --- | --- | --- | --- | --- | --- | --- | --- | --- | --- | --- | --- | --- | --- | --- | --- |
| NCI-H2087 | 0.266 | 0.293 | 0.307 | 0.183 | 0.895 | 0.814 | 0.79 | 0.619 | 1.1 | 0.924 | 1.06 | 0.647 | 0.745 | 0.963 | 0.868 | 0.516 | 0.793 | 0.82 | 0.848 | 0.502 |
| NCI-H358 | 0.1 | 0.107 | 0.0928 | 0.098 | 0.155 | 0.165 | 0.154 | 0.154 | 0.679 | 0.705 | 0.601 | 0.228 | 0.652 | 0.38 | 0.367 | 0.17 | 0.761 | 0.796 | 0.666 | 0.513 |
| RERF-LC-KJ | 0.599 | 0.501 | 0.445 | 0.217 | 0.873 | 0.899 | 0.707 | 0.648 | 0.881 | 0.891 | 0.94 | 0.874 | 0.86 | 0.767 | 0.699 | 0.669 | 0.62 | 0.636 | 0.591 | 0.416 |
| IA-LM |  |  |  |  |  |  |  |  | 0.615 | 0.452 | 0.769 | 0.626 | 0.78 | 0.936 | 1.32 | 0.546 |  |  |  |  |
| LOU-NH91 | 0.699 | 0.609 | 0.525 | 0.568 | 0.63 | 0.662 | 0.583 | 0.564 | 0.925 | 0.956 | 0.802 | 0.94 | 0.768 | 0.721 | 0.715 | 0.796 | 0.794 | 0.75 | 0.735 | 0.724 |
| NCI-H1975 | 0.707 | 0.794 | 0.623 | 0.234 | 0.346 | 0.433 | 0.401 | 0.289 | 0.83 | 1.04 | 0.977 | 0.659 | 0.99 | 1.04 | 0.879 | 0.643 | 0.83 | 0.7 | 0.574 | 0.424 |
| NCI-H2342 | 0.579 | 0.471 | 0.507 | 0.46 | 0.307 | 0.319 | 0.287 | 0.312 |  |  |  |  |  |  |  |  | 0.66 | 0.569 | 0.591 | 0.637 |
| NCI-H1793 | 0.372 | 0.326 | 0.375 | 0.213 | 0.408 | 0.403 | 0.361 | 0.356 | 0.874 | 1.06 | 1.01 | 0.507 |  |  |  |  | 0.34 | 0.292 | 0.329 | 0.241 |
| NCI-H1563 |  |  |  |  | 0.476 | 0.429 | 0.439 | 0.405 | 1.36 | 1.23 | 1.3 | 0.905 | 0.852 | 0.849 | 0.82 | 0.617 | 0.782 | 0.749 | 0.821 | 0.67 |
| PC-14 | 0.619 | 0.595 | 0.47 | 0.427 | 0.278 | 0.249 | 0.228 | 0.177 | 0.923 | 0.917 | 0.879 | 0.75 | 0.879 | 0.919 | 0.851 | 0.602 | 0.738 | 0.968 | 0.572 | 0.475 |
| CAL-12T | 0.323 | 0.288 | 0.298 | 0.263 | 0.521 | 0.387 | 0.281 | 0.129 | 0.833 | 0.901 | 0.723 | 0.374 | 0.562 | 0.426 | 0.309 | 0.333 | 0.726 | 0.834 | 0.669 | 0.186 |
| COR-L23 | 0.201 | 0.186 | 0.168 | 0.111 | 0.533 | 0.496 | 0.382 | 0.298 | 0.909 | 0.827 | 0.961 | 0.4 | 0.724 | 0.703 | 0.466 | 0.204 | 0.843 | 0.769 | 0.82 | 0.501 |
| NCI-H1395 | 0.698 | 0.721 | 0.601 | 0.72 | 0.368 | 0.435 | 0.397 | 0.32 | 1.1 | 0.957 | 0.611 | 0.786 |  |  |  |  | 0.635 | 0.686 | 0.482 | 0.498 |
| HCC-44 | 0.934 | 1.05 | 0.581 | 0.351 |  |  |  |  | 0.648 | 0.668 | 0.787 | 0.426 | 0.811 | 0.876 | 0.973 | 0.581 | 0.483 | 0.472 | 0.564 | 0.45 |
| NCI-H522 | 0.57 | 0.603 | 0.544 | 0.569 | 0.972 | 0.769 | 0.764 | 0.849 |  |  |  |  |  |  |  |  | 0.801 | 0.71 | 0.769 | 0.685 |
| NCI-H2170 | 0.724 | 0.731 | 0.74 | 0.712 | 0.594 | 0.517 | 0.476 | 0.64 |  |  |  |  | 1.17 | 1.27 | 1.07 | 1.13 | 0.725 | 0.643 | 0.791 | 0.674 |
| SW 900 | 0.571 | 0.549 | 0.657 | 0.233 | 0.737 | 0.541 | 0.414 | 0.259 |  |  |  |  |  |  |  |  | 0.679 | 0.521 | 0.487 | 0.423 |
| NCI-H1650 | 0.548 | 0.425 | 0.377 | 0.25 | 0.317 | 0.276 | 0.291 | 0.258 |  |  |  |  | 0.98 | 0.969 | 0.786 | 0.591 | 0.687 | 0.703 | 0.53 | 0.414 |
| NCI-H1792 |  |  |  |  | 0.792 | 0.764 | 0.821 | 0.664 | 0.559 | 0.673 | 0.461 | 0.424 | 1.01 | 1.08 | 1.09 | 0.892 | 0.765 | 0.728 | 0.702 | 0.53 |
